Experimental data taken from patent US8003630B2, “Combinatorial therapies for the treatment of neoplasias using the opioid growth factor receptor” (The Penn State Research Foundation, priority 2004, dated 2011).

Experiments:
SCC-1 cells [1] = experiment: Cell proliferation assays of SCC-1 cells (MTS or cell counting), Example 8; assay type: cell-based, human; conditions: for decrease from control levels in absorbency readings: opioids 10^−6 M daily; for reduction of cell number from control levels: SCC-1, MTS, carboplatin 10^−7 M
Experimental: The UM-SCC-1 cell line (SCC-1) was derived from a well-differentiated recurrent squamous cell carcinoma in the floor of the mouth of a person (25). This cell line was obtained from The University of Michigan, Cancer Research Laboratory (Thomas E. Carey, Ph.D., Director). CAL-27 human squamous cell carcinoma cell line, derived from a poorly differentiated carcinoma of the tongue in a person ([…]), was obtained from the American Type Culture Collection (Manassas, Va.). Both cell lines were grown in Dulbecco's MEM (modified) media supplemented with 10% fetal calf serum, 1.2% sodium bicarbonate, and antibiotics (5,000 Units/ml penicillin, 5 mg/ml streptomycin, 10 mg/ml neomycin). The cell cultures were maintained in a humidified atmosphere of 7% CO2/93% air at 37° C.
Cells were seeded at equivalent amounts into either 6-well or 96-well plates (Falcon) and counted 24 hr later to determine plating efficiency.
The dosage of carboplatin selected was based on previous reports (27, 28), as well as preliminary studies in our laboratory.
Cell number was recorded either by using the MTS proliferation bioassay (Cell Titer 96 One Solution, Promega, Madison, Wis.) and measuring absorbency after 4 hr on a Biorad (Model 3550) plate reader at 490 nm with a 750 nm background absorbance screening, or by directly counting cells. The MTS assay utilized 10 wells/treatment. For manual counts, cells were harvested by trypsinization with 0.25% trypsin/0.53 mM EDTA, centrif uiged, and counted with a hemacytometer. Cell viability was determined by trypan blue staining. At least two aliquots per well, and 4-10 wells/treatment, were counted at each time for manual counting.
For some experiments, the rate of growth over a 96-hr period of time was calculated using linear regression analyses. The slopes of the lines (number of cells/hr) were compared by analysis of variance. All calculations were performed with GraphPad Prism software.

MIA PaCa-2 cells = experiment: Growth assays of MIA PaCa-2 cells (MTS assay or cell counting), Example 7; assay type: cell-based, human; conditions: for inhibition of cell number relative to controls: MIA PaCa-2, opioids 10^−6 M daily, 96 hr
Experimental: MIA PaCa-2 and PANC-1 human pancreatic adenocarcinoma cell lines were purchased from the American Type Culture Collection (Manasass, Va.). MIA PaCa-2 cells were derived from an undifferentiated epithelial carcinoma occurring in the body and tail of the pancreas in a person. The PANC-1 cells were derived from an undifferentiated carcinoma from the head of the pancreas in a person. MIA PaCa-2 and PANC-1 cells were grown in Dulbecco's MEM (modified) media; media was supplemented with 10% fetal calf serum, 1.2% sodium bicarbonate, and antibiotics (5,000 Units/ml penicillin, 5 mg/ml streptomycin, 10 mg/ml neomycin), and the cells were maintained in a humidified atmosphere of 7% CO2/93% air at 37° C.
MIA PaCa-2 cells were seeded at equivalent amounts into either 75 cm^2 flasks, 6-well plates, or 96-well plates (Falcon) and counted 24 hr later to determine plating efficiency. Growth assays for PANC-1 cells were conducted in 6-well plates (Falcon). Compounds or sterile water were added beginning 24 hr after seeding (=0 hr), and both media and compounds were replaced daily. All drugs were prepared in sterile water and dilutions represent final concentrations of the compounds.
Cell number was recorded either by using a mitogenic bioassay, the MTS assay (Cell Titer 96 One Solution, Promega, Madison, Wis.), and measuring absorbency after 4 hr on a Biorad (Model 3550) plate reader at 490 nm, or by counting cells. For manual counts, cells were harvested with a solution of 0.25% trypsin/0.53 mM EDTA, centrif uiged, and counted with a hemacytometer. Cell viability was determined by trypan blue staining. At least two aliquots per flask or 4-10 wells/treatment were counted at each time.

SCC-1 cells [2] = experiment: Growth curves of SCC-1 cells, cell proliferation (MTT) assay, absorbency
Excerpt: Cells were counted using a standard MTT assay. In general, each data point represents the average absorbency taken from 10 wells/treatment; error bars represent the S.E.M.

Compound	decrease from control levels in absorbency readings (SCC-1 cells [1]; SCC-1)	inhibition of cell number relative to controls (MIA PaCa-2 cells)	also measured
CC(C)C[C@@H](NC(=O)[C@H](Cc1ccccc1)NC(=O)CNC(=O)[C@@H](C)NC(=O)[C@@H](N)Cc1ccc(O)cc1)C(=O)O [DADLE, [D-Ala-D-Leu-enkephalin]]	none of the drugs utilized had any inhibitory or stimulatory effect on growth	none of the other drugs utilized had any inhibitory or stimulatory effect on growth	–
C[C@@H](NC(=O)[C@@H](N)Cc1ccc(O)cc1)C(=O)NCC(=O)N(C)[C@@H](Cc1ccccc1)C(=O)NCCO [DAMGO, [D-Ala^2, MePhe^4, Glyol^5]-enkephalin]	none of the drugs utilized had any inhibitory or stimulatory effect on growth	none of the other drugs utilized had any inhibitory or stimulatory effect on growth	–
N.N.O=C([O-])C1(C(=O)[O-])CCC1.[Pt+2] [carboplatin]	–	–	reduction of cell number from control levels (SCC-1 cells [1]; 72 hr): 19%; reduction of cell number from control levels (SCC-1 cells [1]; 96 hr): 21%; decrease in cell number relative to controls (SCC-1 cells [2]; 48 h, carboplatin 10^−6 M and/or OGF 10^−6 M): 5.3%; decrease in cell number relative to controls (SCC-1 cells [2]; 72 h, carboplatin 10^−6 M and/or OGF 10^−6 M): 21.8%; decrease in cell number relative to controls (SCC-1 cells [2]; 72 h, carboplatin 10^−7 M alone or with OGF 10^−6 M): 18.7%; decrease in cell number relative to controls (SCC-1 cells [2]; 96 h, carboplatin 10^−6 M and/or OGF 10^−6 M): 24.9%; decrease in cell number relative to controls (SCC-1 cells [2]; 96 h, carboplatin 10^−7 M alone or with OGF 10^−6 M): 21%
CN1CC[C@]23c4c5ccc(O)c4O[C@H]2[C@@H](O)C=C[C@H]3[C@H]1C5 [morphine]	none of the drugs utilized had any inhibitory or stimulatory effect on growth	none of the other drugs utilized had any inhibitory or stimulatory effect on growth	–
C=CCN1CC[C@]23c4c5ccc(O)c4O[C@H]2C(=O)CC[C@@]3(O)[C@H]1C5 [naloxone]	–	–	effect of naloxone on growth and growth inhibition (SCC-1 cells [1]; SCC-1, naloxone 10^−6 M): had no effect on growth; effect of naloxone on growth and growth inhibition (MIA PaCa-2 cells; MIA PaCa-2, 96 hr, naloxone 10^−6 M): had no effect on the growth of MIA PaCa-2 cells
[D-Pen^2,5]-enkephalin [DPDPE]	none of the drugs utilized had any inhibitory or stimulatory effect on growth	none of the other drugs utilized had any inhibitory or stimulatory effect on growth	–
dynorphin 1-13 (YGGFLRRIRPKLK; Dynorphin A(1-13); UniProt P01213 207-219, looked up, fragment)	none of the drugs utilized had any inhibitory or stimulatory effect on growth	–	–
dynorphin A1-8 (YGGFLRRI; Dynorphin A(1-8); UniProt P01213 207-214, looked up, fragment)	–	none of the other drugs utilized had any inhibitory or stimulatory effect on growth	–
endomorphin-1	none of the drugs utilized had any inhibitory or stimulatory effect on growth	none of the other drugs utilized had any inhibitory or stimulatory effect on growth	–
endomorphin-2	none of the drugs utilized had any inhibitory or stimulatory effect on growth	none of the other drugs utilized had any inhibitory or stimulatory effect on growth	–
β-endorphin (YGGFMTSEKSQTPLVTLFKNAIIKNAYKKGE; Beta-endorphin; UniProt P01189 237-267, looked up)	none of the drugs utilized had any inhibitory or stimulatory effect on growth	none of the other drugs utilized had any inhibitory or stimulatory effect on growth	–
